Measured values published in patent US20050282755A1, “Compositions having antimicrobial activity and uses thereof” (priority 2004, published 2005).
In brackets after ≈: the same amount, converted by molar mass. Like-named read-outs stand apart in the source and are kept apart here. Non-standard residues stand in square brackets, D forms with d. Residues, ends and D or L forms follow the SMILES beside them. *: point of attachment. Lauroyl = CCCCCCCCCCCC(=O)*; Decanoyl = CCCCCCCCCC(=O)*; Hexanoyl = CCCCCC(=O)*

Columns and labels:
Type in all cases: cell-based
Salmonella dublin (Lane) = assay: MIC, NCCLS M7-A6 broth microdilution (Table 9, no superscript)
How it was run: (§1)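 CAMHB microdilution; final inoculum 5×10^5–1×10^6 CFU/milliliter from log-phase culture; overnight, 37° C; MIC = lowest peptide conc. without visible growth (turbidity) vs no-peptide control.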

[1] = system: Staphylococcus epidermidis ATCC 12228; assay: as above
How it was run: as §1

[2] = system: Escherichia coli ATCC 25922; assay: as above
How it was run: as §1

[3] = system: Pseudomonas aeruginosa ATCC 27853; assay: as above
How it was run: as §1

[4] = system: Candida albicans ATCC 18804; assay: MIC in yeasts, NCCLS M27-A2 broth microdilution, RPMI 1640 (Table 9, letter e)
Method: Briefly, RPMI 1640 supplemented with glutamine and phenol red as a pH indicator was used in the broth microdilution method. A 96-well plate was inoculated so that the final inoculum of yeast for each well contained between 0.5×10^3 and 2.5×10^3 CFU/milliliter. […] Plates were incubated for 24 to 48 hours at 37° C. The lowest concentration of peptide that contained no visible growth was determined as the MIC. MIC values that utilized this method of MIC determination are indicated in Table 9 with a subscript letter “e.” “Peptide Number” corresponds to peptide compositions and corresponding designations in Table 3.

[5] = system: Staphylococcus aureus ATCC 29213; assay: MIC, NCCLS M7-A6 broth microdilution, cation-adjusted Mueller Hinton broth (Table 9, no superscript)
How it was run: as §1

[6] = system: Propionibacterium acnes ATCC 6919; assay: MIC, agar dilution method NCCLS M11-A6, Brucella agar, anaerobic (Table 9, superscript c); conditions: ATCC 6919
Method: A bacterial suspension was prepared to allow for a final inoculum on the plate of 1.5×10^8 CFU/milliliter. After the suspension absorbed into the agar surface, the plates were incubated for 48-96 hours at 37° C. in a GasPak anaerobic chamber. The lowest concentration of peptide that contained no colony growth on the agar plate was determined as the MIC. MIC values that utilized this method of MIC determination are indicated in Table 9 with a superscript letter “c.”

[7] = no superscript: NCCLS M7-A6 broth microdilution

Compound	MIC S. dublin (Salmonella dublin (Lane))	MIC S. epidermidis ([1]; ATCC 12228)	MIC E. coli ([2]; ATCC 25922)	MIC P. aeruginosa ([3]; ATCC 27853)	MIC C. albicans ([4]; ATCC 18804)	MIC S. aureus ([5]; ATCC 29213)	MIC P. acnes [6]	MIC S. dublin (Salmonella dublin (Lane); [7])	MIC S. epidermidis [1, 7]	MIC E. coli [2, 7]	MIC P. aeruginosa [3, 7]	MIC C. albicans ([4]; letter e: NCCLS M27-A2 broth microdilution, RPMI 1640)	MIC S. aureus [5, 7]
CCCCCCCCCCCC(=O)N[C@@H](CCCNC(=N)N)C(=O)N[C@@H](CO)C(=O)N[C@@H](CCCNC(=N)N)C(=O)N[C@@H](Cc1c[nH]c2ccccc12)C(=O)N[C@@H](CCCNC(=N)N)C(=O)N[C@@H](CC(=O)O)C(=O)N[C@H](C(=O)N[C@@H](CC(C)C)C(=O)N[C@@H](CCCNC(=N)N)C(=O)N[C@@H](CC(N)=O)C(=O)N[C@@H](Cc1ccccc1)C(=O)N[C@@H](CC(C)C)C(=O)N[C@@H](CCCNC(=N)N)C(=O)N[C@@H](CC(C)C)C(=O)N[C@@H](CC(C)C)C(N)=O)C(C)C [Peptide 138, Lauryl-RSRWRDVLRNFLRLL-NH2] (Lauroyl-RSRWRDVLRNFLRLL-NH2)	>64 µg/mL	>64 µg/mL	>64 µg/mL	>64 µg/mL	2e ug/mL	>64 µg/mL							
CCCCCCCCCCCC(=O)N[C@@H](CCCNC(=N)N)C(=O)N[C@@H](CO)C(=O)N[C@@H](CCCNC(=N)N)C(=O)N[C@@H](Cc1c[nH]c2ccccc12)C(=O)N[C@@H](CCCNC(=N)N)C(=O)N[C@@H](CC(=O)O)C(=O)N[C@H](C(=O)N[C@@H](C)C(=O)N[C@@H](CCCNC(=N)N)C(=O)N[C@@H](CC(N)=O)C(=O)N[C@@H](Cc1ccccc1)C(=O)N[C@@H](CCSC)C(=O)N[C@@H](CCCNC(=N)N)C(=O)N[C@@H](Cc1c[nH]c2ccccc12)C(=O)N[C@@H](Cc1c[nH]c2ccccc12)C(N)=O)C(C)C [Peptide 142, Lauryl-RSRWRDVARNFMRWW-NH2] (Lauroyl-RSRWRDVARNFMRWW-NH2)	>64 µg/mL	8 µg/mL (≈ 3.47 µM)	64 µg/mL (≈ 27.8 µM)	>64 µg/mL	4e ug/mL	64 µg/mL (≈ 27.8 µM)							
CCCCCCCCCCCC(=O)N[C@@H](CCCNC(=N)N)C(=O)N[C@@H](CO)C(=O)N[C@@H](CCCNC(=N)N)C(=O)N[C@@H](Cc1c[nH]c2ccccc12)C(=O)N[C@@H](CCCNC(=N)N)C(=O)N[C@@H](CC(=O)O)C(=O)N[C@@H](Cc1c[nH]c2ccccc12)C(=O)N[C@@H](C)C(=O)N[C@@H](CCCNC(=N)N)C(=O)N[C@@H](CC(N)=O)C(=O)N[C@@H](Cc1c[nH]c2ccccc12)C(=O)N[C@@H](CCSC)C(=O)N[C@@H](CCCNC(=N)N)C(=O)N[C@@H](Cc1c[nH]c2ccccc12)C(N)=O [Peptide 144, Lauryl-RSRWRDWARNWMRW-NH2] (Lauroyl-RSRWRDWARNWMRW-NH2)	64 µg/mL (≈ 28.5 µM)	8 µg/mL (≈ 3.57 µM)	>64 µg/mL	>64 µg/mL	32e ug/mL	32 µg/mL (≈ 14.3 µM)							
CCCCCCCCCCCC(=O)N[C@@H](CCCNC(=N)N)C(=O)N[C@@H](CO)C(=O)N[C@@H](CCCNC(=N)N)C(=O)N[C@@H](Cc1c[nH]c2ccccc12)C(=O)N[C@@H](CCCNC(=N)N)C(=O)N[C@@H](CC(=O)O)C(=O)N[C@@H](Cc1c[nH]c2ccccc12)C(=O)N[C@@H](C)C(=O)N[C@@H](CCCNC(=N)N)C(=O)N[C@@H](CC(N)=O)C(=O)N[C@@H](Cc1c[nH]c2ccccc12)C(=O)N[C@@H](CCSC)C(=O)N[C@@H](CCCNC(=N)N)C(=O)N[C@@H](Cc1c[nH]c2ccccc12)C(=O)N[C@@H](Cc1c[nH]c2ccccc12)C(N)=O [Peptide 145, Lauryl-RSRWRDWARNWMRWW-NH2] (Lauroyl-RSRWRDWARNWMRWW-NH2)	>64 µg/mL	16 µg/mL (≈ 6.58 µM)	>64 µg/mL	>64 µg/mL	2e ug/mL	>64 µg/mL							
CCCCCCCCCCCC(=O)N[C@@H](CCCNC(=N)N)C(=O)N[C@@H](CO)C(=O)N[C@@H](CCCNC(=N)N)C(=O)N[C@@H](Cc1c[nH]c2ccccc12)C(=O)N[C@@H](CCCNC(=N)N)C(=O)N[C@@H](CC(=O)O)C(=O)N[C@@H](Cc1c[nH]c2ccccc12)C(=O)N[C@@H](C)C(=O)N[C@@H](CCCNC(=N)N)C(=O)N[C@@H](CC(N)=O)C(=O)N[C@@H](Cc1c[nH]c2ccccc12)C(=O)N[C@@H](CCSC)C(=O)N[C@@H](CCCNC(=N)N)C(=O)N[C@@H](CC(C)C)C(=O)N[C@@H](CC(C)C)C(N)=O [Peptide 146, Lauryl-RSRWRDWARNWMRLL-NH2] (Lauroyl-RSRWRDWARNWMRLL-NH2)	64 µg/mL (≈ 28 µM)	4 µg/mL (≈ 1.75 µM)	>64 µg/mL	>64 µg/mL	2e ug/mL	64 µg/mL (≈ 28 µM)							
CCCCCCCCCCCC(=O)N[C@@H](CCCNC(=N)N)C(=O)N[C@@H](CO)C(=O)N[C@@H](CCCNC(=N)N)C(=O)N[C@@H](Cc1c[nH]c2ccccc12)C(=O)N[C@@H](CCCNC(=N)N)C(=O)N[C@@H](CC(=O)O)C(=O)N[C@@H](Cc1c[nH]c2ccccc12)C(=O)N[C@@H](Cc1c[nH]c2ccccc12)C(=O)N[C@@H](CCCNC(=N)N)C(=O)N[C@@H](CC(N)=O)C(=O)N[C@@H](Cc1c[nH]c2ccccc12)C(=O)N[C@@H](CCSC)C(=O)N[C@@H](CCCNC(=N)N)C(N)=O [Peptide 147, Lauryl-RSRWRDWWRNWMR-NH2] (Lauroyl-RSRWRDWWRNWMR-NH2)	64 µg/mL (≈ 29.5 µM)	2 µg/mL (≈ 0.921 µM)	64 µg/mL (≈ 29.5 µM)	>64 µg/mL	2e ug/mL	64 µg/mL (≈ 29.5 µM)							
CCCCCCCCCCCC(=O)N[C@@H](CCCNC(=N)N)C(=O)N[C@@H](CO)C(=O)N[C@@H](CCCNC(=N)N)C(=O)N[C@@H](Cc1c[nH]c2ccccc12)C(=O)N[C@@H](CCCNC(=N)N)C(=O)N[C@@H](CC(=O)O)C(=O)N[C@@H](Cc1c[nH]c2ccccc12)C(=O)N[C@@H](Cc1c[nH]c2ccccc12)C(=O)N[C@@H](CCCNC(=N)N)C(=O)N[C@@H](CC(N)=O)C(=O)N[C@@H](Cc1c[nH]c2ccccc12)C(=O)N[C@@H](CCSC)C(=O)N[C@@H](CCCNC(=N)N)C(=O)N[C@@H](CC(C)C)C(=O)N[C@@H](CC(C)C)C(N)=O [Peptide 148, Lauryl-RSRWRDWWRNWMRLL-NH2] (Lauroyl-RSRWRDWWRNWMRLL-NH2)	>64 µg/mL	>64 µg/mL	>64 µg/mL	>64 µg/mL	4e ug/mL	>64 µg/mL							
CCCCCCCCCC(=O)N[C@H](CCCNC(=N)N)C(=O)N[C@H](CO)C(=O)N[C@H](CCCNC(=N)N)C(=O)N[C@H](Cc1c[nH]c2ccccc12)C(=O)N[C@H](CCCNC(=N)N)C(=O)N[C@H](CC(=O)O)C(=O)N[C@@H](C(=O)N[C@H](C)C(=O)N[C@H](CCCNC(=N)N)C(=O)N[C@H](CC(N)=O)C(=O)N[C@H](Cc1ccccc1)C(=O)N[C@H](CC(C)C)C(=O)N[C@H](CCCNC(=N)N)C(N)=O)C(C)C [Peptide 190, Decanyl-rsrwrdvarnflr-NH2] (Decanoyl-[dR][dS][dR][dW][dR][dD][dV][dA][dR][dN][dF][dL][dR]-NH2)		2 µg/mL (≈ 1.06 µM)	4 µg/mL (≈ 2.12 µM)	8 µg/mL (≈ 4.24 µM)		8 µg/mL (≈ 4.24 µM)	4 µg/mL (≈ 2.12 µM)						
CCCCCC(=O)N[C@@H](CCCNC(=N)N)C(=O)N[C@@H](CO)C(=O)N[C@@H](CCCNC(=N)N)C(=O)N[C@@H](Cc1c[nH]c2ccccc12)C(=O)N[C@@H](CCCNC(=N)N)C(=O)N[C@@H](CC(=O)O)C(=O)N[C@H](C(=O)N[C@@H](C)C(=O)N[C@@H](CCCNC(=N)N)C(=O)N[C@@H](CC(N)=O)C(=O)N[C@@H](Cc1ccccc1)C(=O)N[C@@H](CCSC)C(=O)N[C@@H](CCCNC(=N)N)C(N)=O)C(C)C [Peptide 202, Hexyl-RSRWRDVARNFMR-NH2] (Hexanoyl-RSRWRDVARNFMR-NH2)	>64 µg/mL					>64 µg/mL	>64c ug/mL						
Lauryl-dvarfm-NH2 [Peptide 125]								>64 µg/mL	>64 µg/mL	>64 µg/mL	>64 µg/mL	>64e ug/mL	>64 µg/mL
Lauryl-rsrwrdvarfm-NH2 [Peptide 115]							4c ug/mL						
